IC50 data for 2 compounds are collected here from ChEMBL document CHEMBL3639104, “Ring-fused compound” (2015).

The assay concerns the target T1, Solute carrier family 22 member 12 (Homo sapiens, UniProt Q96S37).
T1 sequence (Q96S37 whole entry): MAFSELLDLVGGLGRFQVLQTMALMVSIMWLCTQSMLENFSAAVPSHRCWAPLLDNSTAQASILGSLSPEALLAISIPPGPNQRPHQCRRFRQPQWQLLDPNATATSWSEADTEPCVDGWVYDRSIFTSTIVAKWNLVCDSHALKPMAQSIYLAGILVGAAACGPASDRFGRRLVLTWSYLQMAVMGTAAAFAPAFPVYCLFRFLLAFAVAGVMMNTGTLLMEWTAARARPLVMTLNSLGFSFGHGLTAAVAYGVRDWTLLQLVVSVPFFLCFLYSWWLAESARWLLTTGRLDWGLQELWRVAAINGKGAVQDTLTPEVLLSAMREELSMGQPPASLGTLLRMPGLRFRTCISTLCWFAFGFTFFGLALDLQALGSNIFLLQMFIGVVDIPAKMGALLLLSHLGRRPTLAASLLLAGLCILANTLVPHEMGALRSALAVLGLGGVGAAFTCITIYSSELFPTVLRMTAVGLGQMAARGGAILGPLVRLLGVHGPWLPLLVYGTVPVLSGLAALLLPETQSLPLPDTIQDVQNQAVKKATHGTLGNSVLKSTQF
Nature of the assay: Inhibition Assay: It was introduced human URAT1 full-length cDNA into an expression vector pcDNA5 / FRT / V5-His TOPO (registered trademark) (Invitrogen). The resulting expression plasmids, the liposome method using Lipofectamine LTX (Invitrogen), Chinese hamster ovary cells (hereinafter, referred to as CHO cells) was introduced into, by culturing in a selective medium containing hygromycin and human URAT1 stable The expression cell line we were prepared.Human URAT1 expression CHO cells, 10% fetal calf serum, D-MEM / F-12 containing the hygromycin (1: 1) using a mixed medium, 37 C, were cultured in the presence of 5% CO2. Cells were seeded in 96-well plates (Corning Incorporated) in 0.8x10E+5 cells / well, were subjected to the following uric acid transport inhibition test after 24 hours.After removal of the medium by aspiration, sodium gluconate of cells 125mM, potassium gluconate of 4.8mM, potassium dihydrogen phosphate of 1.2mM, magnesium sulfate of 1.2mM, calcium gluconate of 1.3mM, 5. washed once. Type of assay: cell-based.

Consider `Cc1nn(Cc2c(Cl)cccc2Cl)c2cc(C(C)C(=O)O)ccc12` (configuration not stated), for which the IC50 was found to be 75 nM.

Take `Cc1nn(Cc2c(Cl)cccc2Cl)c2cc(C(C)(C)C(=O)O)ccc12`: the half-maximal inhibitory concentration (IC50) turned out to be 98 nM.

For orientation: IC50 means the concentration that inhibits the measured activity by half.
